The record followed here is PMC5507466, “The ubiquitin-conjugating enzyme CDC34 is essential for cytokinesis in contrast to putative subunits of a SCF complex in Trypanosoma brucei” (PLoS Neglected Tropical Diseases, 2017).

The target in this experiment is T1, TbCDC34 (Trypanosoma brucei, UniProt Q382B7).
T1 construct: gene Tb11.01.5790; N-terminal 6His-tagged, expressed in E. coli BL21(DE3)+pLysE, Ni-NTA purified; catalytic Cys84, Ser86
T1 sequence (Q382B7 1-247): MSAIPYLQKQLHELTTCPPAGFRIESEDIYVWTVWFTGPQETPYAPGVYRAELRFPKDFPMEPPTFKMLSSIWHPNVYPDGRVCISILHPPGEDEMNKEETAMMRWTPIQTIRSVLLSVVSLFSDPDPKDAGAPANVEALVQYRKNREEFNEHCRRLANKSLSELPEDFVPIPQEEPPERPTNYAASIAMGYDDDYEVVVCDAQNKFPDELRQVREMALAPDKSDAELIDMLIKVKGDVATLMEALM
Put plainly: in vitro gel-based ubiquitination assay (anti-ubiquitin and anti-His western blot). Format: biochemical. The settings on record: 300 μM CC0651 vs DMSO; 10 μM E2, 100 nM human E1, 5 μM human ubiquitin; ATP; 37 °C, 0-4 h.

In the case of `COCC(=O)N[C@@H](Cc1ccc(-c2cc(Cl)cc(Cl)c2)cc1)[C@H](O)[C@@H](O)C(=O)O` [CC0651], the “in vitro gel-based ubiquitination assay (anti-ubiquitin and anti-His western blo)” value is on record as “addition of CC0651 to the reaction had modest, but detectable effect on TbCDC34 activity”.
